According to patent US20030207886A1, “Preparation containing quinoxaline derivatives” (priority 2000, published 2003):

Experiment: Maxima of UV-A and UV-B absorption of quinoxaline derivatives in 2-propanol
Assay type: physicochemical
Conditions: 1 mg of substance per 100 ml of solvent; for UV-A (400 320 nm) Max. abs.: absorbance at UV-A maximum; for UV-B (280 320 nm) Max. abs.: absorbance at UV-B maximum; for UV-A (400 320 nm) λ [nm]: wavelength of UV-A maximum; for UV-B (280 320 nm) λ [nm]: wavelength of UV-B maximum
Experimental: The measurement was carried out in 2-propanol at a concentration of 1 mg of substance per 100 ml of solvent.

Structure (SMILES) | UV-A (400 320 nm) Max. abs. | UV-B (280 320 nm) Max. abs. | UV-A (400 320 nm) λ [nm] | UV-B (280 320 nm) λ [nm]
CC(C)OC(=O)c1ccc(Nc2cnc3ccccc3n2)cc1 | 0.555 | 1.262 | 374.3 | 306.7
O=C(/C=C/c1ccccc1)c1cnc2ccccc2n1 | 0.1731 | – | 329.0 | –
CC(=O)c1ccn2c(c1)nc1nc3ccccc3nc12 | 0.533 | – | 364.8 | –
FC(F)(F)c1cc(Nc2cnc3ccccc3n2)cc(C(F)(F)F)c1 | 0.262 | – | 359.8 | –
O=C(O)c1ccc(Nc2cnc3ccccc3n2)c(O)c1 | 0.5594 | – | 381.0 | –
CC(C)(C)OC(=O)c1ccc(Nc2nc3ccccc3nc2Cl)cc1 | – | 0.4672 | – | 291.0
CCOC(=O)CCC(NC(=O)c1ccc(Nc2cnc3ccccc3n2)cc1)C(=O)OCC (stereo not drawn) | 0.3076 | 0.756 | 380.0 | 307.0
c1ccc2nc3c(nc2c1)nc1ccccn13 | 0.411 | – | 348.3 | –
C(#Cc1nc2ccccc2nc1C#Cc1ccccc1)c1ccccc1 | 0.4443 | 0.8366 | 385.0 | 294.0
O=C(c1ccccc1)c1cnc2ccccc2n1 | – | 0.330 | – | 300.0
c1ccc2nc(-c3cnc4ccccc4n3)cnc2c1 | 0.7687 | – | 341.0 | –
COC(=O)c1cc(Nc2cnc3ccccc3n2)cc(C(=O)OC)c1 | 0.322 | 0.789 | 368.3 | 287.7
COc1cc(Nc2cnc3ccccc3n2)cc(OC)c1OC | 0.281 | 0.679 | 386.1 | 275.6
